Test results published in patent US8986696B2, “Trans-capsular administration of p38 map kinase inhibitors into orthopedic joints” (DePuy Mitek, Inc., priority 2007, dated 2015).
Read-outs that look alike come from different tables or passages of the source.

Key:
[1] = tested on: IL-1β-stimulated GAG release, bovine chondrocyte pellets / ARC tissues; assay: chondrocyte pellet culture model: GAG degradation; assay type: cell-based; settings: for inhibition of GAG degradation: ARC tissues stimulated with IL-1β; for GAG Release: Pellet Assay
Method in brief: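 Bovine chondrocyte pellets (calf articular cartilage, 2–3 weeks culture) or ARC tissue punches pretreated with compounds for 1 h at 37° C, then 3–5 days with or without 10 ng/ml IL-1β; DMSO ≤1%. Medium GAG measured by dimethylmethylene blue absorbance at 525 nm against chondroitin sulfate; reported as μg/ml or % total GAG released.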

solubility = assay type: physicochemical
[2] = tested on: rabbit anterior cruciate ligament transection (ACLT) model of osteoarthritis; assay: ACLT model, therapeutic dosing regimen (Example IX); assay type: in vivo; settings: for Trochlear Groove Erosion of Cartilage / Tibial Plateau Presence of Clefts (Lateral) / Tibial Plateau Presence of Clefts (Medial) / Trochlear Groove Thickening / Femoral Condyle Presence of Clefts / Femoral Condyle % Surface Area Erosion (Lateral) / Femoral Condyle % Surface Area Erosion (Medial) / Tibial Plateau % Surface Area Erosion (Lateral) / Tibial Plateau % Surface Area Erosion (Medial) / Tibial Plateau # of Osteophytes (Lateral) / Tibial Plateau # of Osteophytes (Medial) / Trochlear Groove # of Osteophytes / Trochlear Groove Osteophyte Size / Femoral Condyle Depth of Erosion (Lateral) / Femoral Condyle Depth of Erosion (Medial) / Tibial Plateau Depth of Erosion (Lateral) / Tibial Plateau Depth of Erosion (Medial) / Combination Scores: All Trochlear Groove Effects / Combination Scores: All Condylar Effects / Combination Scores: All Tibial Plateau Effects / Combination Scores: All Cartilage Effects / Combination Scores: Total Score: Therapeutic Dosing Regimen; for Trochlear Groove Erosion of Cartilage / Tibial Plateau Presence of Clefts (Lateral) / Tibial Plateau Presence of Clefts (Medial) / Trochlear Groove Thickening / Femoral Condyle Presence of Clefts / Femoral Condyle % Surface Area Erosion (Lateral) / Femoral Condyle % Surface Area Erosion (Medial) / Tibial Plateau % Surface Area Erosion (Lateral) / Tibial Plateau % Surface Area Erosion (Medial) / Tibial Plateau # of Osteophytes (Lateral) / Tibial Plateau # of Osteophytes (Medial) / Trochlear Groove # of Osteophytes / Trochlear Groove Osteophyte Size / Femoral Condyle Depth of Erosion (Lateral) / Femoral Condyle Depth of Erosion (Medial) / Tibial Plateau Depth of Erosion (Lateral) / Tibial Plateau Depth of Erosion (Medial): mean gross score; for Trochlear Groove Erosion of Cartilage: 0 = 0, 1 < 25%, 2 = 25-50%, 3 > 50%; for Tibial Plateau Presence of Clefts (Lateral) / Tibial Plateau Presence of Clefts (Medial): 0 = Absent, 1 = Present; for Trochlear Groove Thickening: 0 = Normal, 1 = Thickened Areas; for Femoral Condyle Presence of Clefts: 0 = absent, 1 = unicondylar, 2 = both condyles; for Femoral Condyle % Surface Area Erosion (Lateral) / Femoral Condyle % Surface Area Erosion (Medial) / Tibial Plateau % Surface Area Erosion (Lateral) / Tibial Plateau % Surface Area Erosion (Medial): scale 0-5; for Tibial Plateau # of Osteophytes (Lateral) / Tibial Plateau # of Osteophytes (Medial) / Trochlear Groove # of Osteophytes / Trochlear Groove Osteophyte Size: scale 0 = 0; for Tibial Plateau # of Osteophytes (Lateral) / Tibial Plateau # of Osteophytes (Medial) / Trochlear Groove # of Osteophytes: 1 = 1, 2 = 2, 3 ≧ 2; for Trochlear Groove Osteophyte Size: 1 ≦ 1 mm, 2 = 1-2 mm, 3 > 2 mm; for Femoral Condyle Depth of Erosion (Lateral) / Femoral Condyle Depth of Erosion (Medial) / Tibial Plateau Depth of Erosion (Lateral) / Tibial Plateau Depth of Erosion (Medial): scale 0 = no damage to 3 = severe; for Combination Scores: All Trochlear Groove Effects / Combination Scores: All Condylar Effects / Combination Scores: All Tibial Plateau Effects / Combination Scores: All Cartilage Effects / Combination Scores: Total Score: mean; for Combination Scores: All Trochlear Groove Effects: 0-10, 10 = max damage; for Combination Scores: All Condylar Effects: 0-18, 18 = max damage; for Combination Scores: All Tibial Plateau Effects: 0-24, 24 = max damage; for Combination Scores: All Cartilage Effects: 0-40, 40 = max damage; for Combination Scores: Total Score: 0-52, 52 = max damage
Protocol: 130 Female New Zealand white rabbits underwent ACLT on the right knee. Intra-articular injections were administered to the operated knee once per week for five weeks beginning either one or six weeks after the ACLT. All animals were euthanized one week after the administration of the fifth injection. Gross observations were made on the knee joints according to a predetermined grading scale. The stifle joints were removed. Samples were preserved in 10% neutral buffered formalin. The stifle joints were photographed using high-resolution photography.
The ACLT was performed according to the ACLT model discussed above. Animals were group housed in pens on the floor and left untreated for six weeks to allow osteoarthritis to develop. Then, once weekly for five weeks, intra-articular injections were administered. One week following the last injection, the animals were sacrificed. The total in-life portion of this regimen was eleven weeks post-ACLT.
The study design consisted of an n=10 per group. A total of 160 μl was injected at each administration.
At the time of sacrifice the following parameters were evaluated grossly (the scale follows in parenthesis):
Each parameter was given a score. The combination of all parameters gave a Total Score (0-52). Additionally, combinations of the three subsets of data yielded scores for All Trochlear Groove Effects (0-10), All Condylar Effects (0-18) and All Tibial Plateau Effects (0-24). Lastly, an […] was obtained. The score for […] ranges from 0 to 40. The grades that compose this parameter are trochlear groove thickness and erosion, all the grades in All Condylar Effects, and all grades listed under Tibial Plateau. A higher score indicates more damage to the joint. A lower score indicates less damage or more cartilage preservation in the joint. Individual results for each parameter assessed were tabulated.

Compound	Trochlear Groove Erosion of Cartilage [2]	Tibial Plateau Presence of Clefts (Lateral) [2]	Tibial Plateau Presence of Clefts (Medial) [2]	Trochlear Groove Thickening [2]	Femoral Condyle Presence of Clefts [2]	Femoral Condyle % Surface Area Erosion (Lateral) [2]	Femoral Condyle % Surface Area Erosion (Medial) [2]	Tibial Plateau % Surface Area Erosion (Lateral) [2]	Tibial Plateau % Surface Area Erosion (Medial) [2]	Tibial Plateau # of Osteophytes (Lateral) [2]	Tibial Plateau # of Osteophytes (Medial) [2]	Trochlear Groove # of Osteophytes [2]	Trochlear Groove Osteophyte Size [2]	Femoral Condyle Depth of Erosion (Lateral) [2]	Femoral Condyle Depth of Erosion (Medial) [2]	Tibial Plateau Depth of Erosion (Lateral) [2]	Tibial Plateau Depth of Erosion (Medial) [2]	Combination Scores: All Trochlear Groove Effects [2]	Combination Scores: All Condylar Effects [2]	Combination Scores: All Tibial Plateau Effects [2]	further results
CC(=O)Oc1cccc2c1C(=O)c1c(OC(C)=O)cc(C(=O)O)cc1C2=O [Diacerein, reference compound]																					lowest concentration inhibiting proteoglycan degradation ([1]; 10 ng/ml IL-1β, five days): ≤ 0.054 µM
OCCC#Cc1nc(-c2ccc(F)cc2)c(-c2ccncc2)n1CCCc1ccccc1 [JNJ 3026582 (RWJ 67657), 4-[4-(4-fluorophenyl)-1-(3-phenylpropyl)-5-(4-pyridinyl)-1H-imidazol-2-yl]-3-butyn-1-ol]	1.9	0	0	0.3	0	2.4	0.7	1.3	0.4	0.9	1.4	2.9	2.9	1.7	0.8	0.9	0.2	8.0	5.6	5.3	water solubility (solubility): poor water solubility; pH at which soluble (solubility; soluble at pH<2): < 2; Combination Scores: All Cartilage Effects [2]: 10.8; Combination Scores: Total Score [2]: 18.9; inhibition of GAG degradation [1]: significant effect
C[C@H](Nc1nccc(-c2c(-c3ccc(F)cc3)nc3nc(N)ccn23)n1)c1ccccc1 [JNJ 7583979 (RWJ 351958)]																					water solubility (solubility): poor water solubility; inhibition of GAG degradation [1]: significant effect
CC(=O)N1CCN(c2c(-c3ccncc3)c(-c3ccc(F)cc3)c(C#N)n2C)CC1 [JNJ 17089540 (RWJ 669307)]	1.6	0	0	0	0	1.1	0.4	1.4	0	0.7	1.5	3.0	3.0	1.1	0.2	1.2	0	7.6	2.8	4.8	water solubility (solubility; HCl salt): > 100 mg/mL; Combination Scores: All Cartilage Effects [2]: 7.0; Combination Scores: Total Score [2]: 15.2; All Cartilage Effects, mean score ([2]; therapeutic dosing regimen): 7.0+1.0; all condylar effects, mean score ([2]; therapeutic dosing regimen): 2.8 ± 0.6; depth of the erosion on the lateral femoral condyle, mean score ([2]; therapeutic dosing regimen): 1.1 ± 0.4; depth of the erosion on the medial femoral condyle, mean score ([2]; therapeutic dosing regimen): 0.2 ± 0.1; percent surface area erosion of the lateral femoral condyle, mean score ([2]; therapeutic dosing regimen): 1.1 ± 0.4; percent surface area erosion of the medial femoral condyle, mean score ([2]; therapeutic dosing regimen): 0.4 ± 0.2; total score, mean ([2]; therapeutic dosing regimen): 15.2 ± 1.2; inhibition of GAG degradation [1]: little effect; GAG Release [1]: No effect
CC(C(=O)O)c1ccc(C(=O)c2cccs2)cc1 (centres unmarked) [Suprofen, reference compound]	1.9	0	0	0	0	1.3	0.3	1.6	0	0.8	1.6	3.0	3.0	1.3	0.2	1.4	0	7.9	3.0	5.4	Combination Scores: All Cartilage Effects [2]: 7.9; Combination Scores: Total Score [2]: 16.3; All Cartilage Effects, mean score ([2]; therapeutic dosing regimen): 7.9+1.5; all condylar effects, mean score ([2]; therapeutic dosing regimen): 3.0 ± 1.0; depth of the erosion on the lateral femoral condyle, mean score ([2]; therapeutic dosing regimen): 1.3 ± 0.4; depth of the erosion on the medial femoral condyle, mean score ([2]; therapeutic dosing regimen): 0.2 ± 0.1; percent surface area erosion of the lateral femoral condyle, mean score ([2]; therapeutic dosing regimen): 1.3 ± 0.4; percent surface area erosion of the medial femoral condyle, mean score ([2]; therapeutic dosing regimen): 0.3 ± 0.2; GAG Release [1]: No effect
